Peptide text beside a SMILES is read from it.
What was measured:
[1] = tested on: skin equivalents (SEs); test: H&E and Warthin Starry staining of skin equivalents; type: cell-based, human; settings: day 20
From the text: Two skin equivalents (SEs) were used from one donor.
The analysis was achieved using the Warthin Starry assay using our recently published method (Joly-Tonetti et al 2016) and hematoxylin&eosin (H&E) staining.
The SEs were stained with Warthin Starry stain to visualise and quantify the melanin in sections. The SEs were removed from culture on day 20 and washed in PBS. They were then flash frozen in liquid nitrogen and mounted in OCT for sectioning. 10 μm sections were cut using a cryostat, the sections collected on slides and fixed in Acetone for 10 mins. The OCT was removed from the section by washing in acidulated water for 20 mins. The slides were then incubated in 1% silver nitrate solution for 1 hour at 43° C. […] The slides were stained for 2 mins then the staining was stopped by running the slides under hot tap water. Slides were then mounted using Histomount. Brightfield images were captured using a Nikon Eclipse microscope. Image analysis of the melanin density in sections was performed using Image J and densitometric thresholding. Results are presented in pixel intensity units. For the hematoxylin&eosin (H&E) staining, the SEs were flash frozen, sectioned and fixed as above. The slides were then washed in dH2O to remove the OCT for 20 mins. Haematoxylin was filtered using filter paper into a Coplin jar. Further Coplin jars were also prepared containing the following: Tap Water, Scott's Tap Water, 0.25% Eosin, 50% Ethanol, 70% Ethanol, 90% Ethanol, Ethanol and Histoclear. The slides were then placed into Haematoxylin for 2 mins, and then placed into tap water for 30 secs, Scott's Tap Water for 1 min & Eosin for 2 mins. The slides were then dehydrated through the Ethanol (1 min each) then placed into Histoclear for 2 mins and mounted using Histomount. Brightfield images were captured using a Nikon Eclipse microscope.

[2] = tested on: Pigmented skin equivalents (SEs), Melanoderms Mel-300-A (donor) and Mel-300-C-2 (donor); test: Skin equivalent culture, photographic assessment of pigmentation; type: cell-based, human
Protocol: The skin equivalent surface area was 63.6 mm^2. Other equipment used included SMZ1000 Stereo Microscope (Nikon); UC30 Microscope Camera (Olympus); Phosphate-Buffered Saline (PBS); 6-well Tissue Culture Plates (Sarstedt); Image J software (https://imagej.nih.gov); Paintshop Photo Pro Software (Corel). The Melanoderms were prepared by carefully removing the agarose with sterile forceps and placing them in pre-warmed culture medium (37° C.) for an hour prior to treatment. The Melanoderms were then topically treated (without rubbing) with 25 μl of the various peptides, dissolved in dH2O at 10 mg/ml. […] The SEs were examined and removed from culture when skin darkening became visible. The pigmentation of the Melanoderms was macroscopically assessed by capturing high-resolution images using the Olympus microscope camera. […] They were then placed into a 6-well plate containing 1 ml PBS/well and images captured at ×8 magnification. The images were then processed using Image J & Paintshop Photo Pro software, to determine a quantifiable pixel area, which equated to the level of pigmentation present in the skin equivalent. The image brightness was normalised and the image gray-scaled using Paintshop Photo Pro, then Image J was used to threshold the image. The pigmentation was quantified by assessing total pixel area of pigmentation coverage in a fixed sample area. An ANOVA test (Dunnett's post-test) was used for the statistical analysis. Three different experiments were conducted. In the first, skin equivalents from both donors were included, and in experiment 2 and 3, only the […] donor was included. The SE of the […] donor from the first experiment received 5 treatments of 25 μl of peptide solution at 10 mg/ml; starting on the first day following receipt then on days 3, 5, 9 and 12. Peptides 1 (SEQ ID NO: 2), 3 (SEQ ID NO: 3) and 4 (SEQ ID NO: 4) were tested. The images were taken on Day 14. In experiment 2, peptide 3 and 4 were selected for testing to see if it had any efficacy in reducing melanin content or the distribution of melanin throughout the SE. This time, 5 SEs were used per treatment to improve statistical robustness. The experiment was continued for 20 days with treatments on days 0, 3, 7 and 12 and medium changes every other day. In experiment 3 a more highly pigmented SE ([…] donor melanocytes) was used and with an increased sample size with n=7 per treatment. […] Treatment was repeated on days 5, 9, 12 and 15 with medium changed every other day.

[3] = tested on: skin equivalents; test: Total melanin assay; type: cell-based, human; settings: experiment 2, 10 mg/ml topical, day 20, n=4
Protocol: The skin equivalents used in this study was from the same donors as in Example 2. The determination of the total melanin content of the skin equivalent was determined using a total melanin assay.
The total melanin content of the SE was calculated by dissolving the SE in Soluene and reading the absorbance against a standard curve. The SEs were removed from culture on day 20 and washed with PBS. They were then transferred to a glass centrifuge tube and 500 μl Soluene added. The tubes were then covered with […]®, gently vortexed and placed on the Thermomixer at 50° C. for 1 hour. The tubes were then gently vortexed and 150 μl of the sample and synthetic melanin standards pipetted in triplicate into a glass 96 well plate. The absorbance was then measured at 490 nm on a Spectrophotometer. Results are presented in μg/ml against a standard curve. The change of melanin content is expressed as a percentage change versus vehicle control samples. An ANOVA (with Dunnett's post-test) was used for the statistical analysis.
Three experiments were conducted, and the same donors were used as in Example 2. The sample sizes were as follows: experiment 1 n=2, experiment 2 n=4 and experiment 3 n=7. Peptides 1 (SEQ ID NO: 2), 3 (SEQ ID NO: 3) and 4 (SEQ ID NO: 4) were tested.

[4] = Solubility of FOL-005 in propylene glycol; type: physicochemical; settings: in propylene glycol at room temperature
[5] = Stability study, purity of FOL-005 by HPLC on storage; type: physicochemical
Protocol: FOL-005 lyophilized powder was dissolved in phosphate/citrate buffer of pHs 5, 6, 7 or 7.6. Samples of each formulation were analysed for purity using high-pressure liquid chromatography after up to 3 months of storage at 25° C. respectively. In addition, an essentially water-free formulation of FOL-005 was stored at 25° C. and samples were analysed for purity after up to 12 months of storage.
FOL-005/sucrose lyophilized powder was formulated to a suspension in dried or un-dried isopropyl myristate, paraffin oil/petrolatum, Sorbitan laurate and glyceryl behenate. Samples of each formulation were analysed for purity using high pressure liquid chromatography after up to 12 months of storage at 2-8, 25 and 30° C. respectively.

Compound: Ala-Ala-His-Met (AAHM; (1)..(4) Peptide 3)
- melanin content and distribution in SE sections (Warthin Starry) ([1]; one of the donors (FIG. 3A)): reduction in melanin in the upper epidermal layers
- melanin content and distribution in SE sections (Warthin Starry) ([1]; second donor (FIG. 3B-D)): did not appear to have any obvious effect
- pigmentation of skin equivalents (photographic assessment) compared to vehicle control ([2]; experiment 1, donor, 5 topical treatments of 25 μl at 10 mg/ml in dH2O, images Day 14): equivalent or slightly less pigmented than the vehicle control
- pigmentation of skin equivalents (photographic assessment) compared to vehicle control ([2]; experiment 2, donor, 10 mg/ml, 20 days, n=5): slight decrease in pigmentation
- pigmentation of skin equivalents (photographic assessment) compared to vehicle control ([2]; experiment 3, more highly pigmented SE (donor), 10 mg/ml, n=7): little effect
- total melanin content of skin equivalents vs vehicle control [3]: no difference

Compound: CC[C@H](C)[C@H](NC(=O)[C@H](CC(=O)O)NC(=O)CNC(=O)[C@H](CC(=O)O)NC(=O)[C@H](Cc1ccc(O)cc1)NC(=O)[C@@H](NC(=O)[C@H](CC(=O)O)NC(=O)[C@@H](N)C(C)C)[C@@H](C)O)C(=O)N[C@@H](CO)C(=O)N[C@H](C(=O)N[C@H](C(=O)N[C@@H](Cc1ccc(O)cc1)C(=O)NCC(=O)N[C@@H](CC(C)C)C(=O)N[C@@H](CCCNC(=N)N)C(=O)O)C(C)C)C(C)C [FOL-005] (H-VDTYDGDISVVYGLR-OH; N-terminus and C-terminus assumed)
- solubility of FOL-005 [4]: 160 µg/mL
- degradation of FOL-005 ([5]; at various pH (buffers)): degraded
- degradation of FOL-005 ([5]; water free conditions): very limited

From patent US20240228536A1, “PEPTIDES FOR USE IN SKIN AND HAIR PIGMENTATION” (Follicum AB, priority 2020, published 2024)
